Laboratory results published in patent US6399614B1, “1-(N-phenylaminoalkyl)piperazine derivatives substituted at position 2 of the phenyl ring” (Recordati S.A. Chemical and Pharmaceutical Company, priority 1997, dated 2002).

Target: T1, human 5-HT1A serotonergic receptor (Homo sapiens, UniProt P08908)
T1 construct: expressed in transfected cells; host or cells: HeLa
T1 sequence (P08908 1-422): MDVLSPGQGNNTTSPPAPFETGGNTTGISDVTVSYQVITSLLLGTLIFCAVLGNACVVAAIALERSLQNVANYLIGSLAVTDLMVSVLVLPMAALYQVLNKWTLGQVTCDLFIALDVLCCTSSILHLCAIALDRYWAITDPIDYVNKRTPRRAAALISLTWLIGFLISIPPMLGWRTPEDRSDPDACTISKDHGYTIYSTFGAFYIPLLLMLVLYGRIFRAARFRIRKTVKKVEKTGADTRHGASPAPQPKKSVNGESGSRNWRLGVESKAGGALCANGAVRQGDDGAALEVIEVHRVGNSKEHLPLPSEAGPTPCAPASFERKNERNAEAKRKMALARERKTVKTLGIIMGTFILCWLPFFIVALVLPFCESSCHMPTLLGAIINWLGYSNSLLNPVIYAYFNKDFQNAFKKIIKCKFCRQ
Assay: Radioreceptor binding, recombinant human 5-HT1A receptors ([3H]8-OH-DPAT, HeLa membranes)
Conditions: recombinant human receptor, [3H]8-OH-DPAT; Ki from IC50 by Cheng & Prusoff; read-out: Binding affinity for the 5-HT1A receptor, Ki
Protocol: Genomic clone G-21 coding for the human 5-HT1A serotonergic receptor is stably transfected in a human cell line (HeLa). HeLa cells were grown as monolayers in Dulbecco's modified Eagle's medium (DMEM), supplemented with 10% fetal calf serum and gentamicin ([…]), 5% CO2 at 37° C. Cells were detached from the growth flask at 95% confluence by a cell scraper and were lysed in ice-cold 5 mM Tris and 5 mM EDTA buffer (pH 7.4). Homogenates were centrifuged at 40000×g×20 min and pellets were resuspended in a small volume of ice-cold 5 mM Tris and 5 mM EDTA buffer (pH 7.4) and immediately frozen and stored at −70° C. until use. On the day of experiment, cell membranes were resuspended in binding buffer: 50 mM Tris HCl (pH 7.4), 2.5 mM MgCl2, 10 μM pargiline (Fargin et al., Nature 335, 358-360, 1988). Membranes were incubated in a final volume of 1 ml for 30 min at 30° C. with 0.2-1 nM [3H]8-OH-DPAT, in absence or presence of competing drugs; non-specific binding was determined in the presence of 10 μM 5-HT. The incubation was stopped by addition of ice-cold Tris-HCl buffer and rapid filtration through 0.2% polyethyleneimine pretreated Whatman GF/B or Schleicher & Schuell GF52 filters.
The inhibition of specific binding of the radioligands by the tested drugs was analyzed to estimate the IC50 value by using the non-linear curve-fitting program Allfit (De Lean et al., Am. J. Physiol. 235, E97-E102, 1978). The IC50 value was converted to an affinity constant (Ki) by the equation of Cheng & Prusoff (Cheng, Y. C.; Prusoff, W. H. Biochem. Pharmacol. 22, 3099-3108, 1973).

Compound	Ki [nM]
COc1ccccc1N1CCN(CCNc2ccccc2OC(F)(F)F)CC1 [Example 3, 1-[N-(2-trifluoromethoxyphenyl)-2-aminoethyl]-4-(2-methoxyphenyl)piperazine]	10.3
COc1ccccc1N1CCN(CCN(C(=O)C2CCCCC2)c2ccccc2OC(F)(F)F)CC1 [Example 4, 1-[N-(2-trifluoromethoxyphenyl)-N-cyclohexylcarbonyl-2-aminoethyl]-4-(2-methoxyphenyl)piperazine]	0.64
COc1ccccc1N1CCN(CCNc2ccccc2Oc2ccccc2)CC1 [Example 5, 1-[N-(2-phenoxyphenyl)-2-aminoethyl]-4-(2-methoxyphenyl)piperazine.3HCl]	14.8
COc1ccccc1N1CCN(CCN(C(=O)C2CCCCC2)c2ccccc2Oc2ccccc2)CC1 [Example 6, 1-[N-(2-phenoxyphenyl)-N-cyclohexylcarbonyl-2-aminoethyl]-4-(2-methoxyphenyl)piperazine]	0.45
COc1ccccc1N1CCN(CCNc2ccccc2I)CC1 [Example 7, 1-[N-(2-iodophenyl)-2-aminoethyl]-4-(2-methoxyphenyl)piperazine]	3.82
O=[N+]([O-])c1ccccc1NCCN1CCN(c2cccc3[nH]ccc23)CC1 [Example 12, 1-[N-(2-nitrophenyl)-2-aminoethyl]-4-(4-indolyl)piperazine]	4.77
O=[N+]([O-])c1ccccc1NCCN1CCN(Cc2cc(Cl)ccc2Cl)CC1 [Example 14, 1-[N-(2-nitrophenyl)-2-aminoethyl)-4-(2,5-dichlorobenzyl)piperazine]	10.3
O=C(C1CCCCC1)N(CCN1CCN(Cc2cc(Cl)ccc2Cl)CC1)c1ccccc1[N+](=O)[O-] [Example 15, 1-[N-(2-nitrophenyl)-N-cyclohexylcarbonyl-2-aminoethyl]-4-(2,5-dichlorobenzyl)piperazine]	6.2
COc1ccccc1N1CCN(CCN(C(=O)C2CCCCC2)c2ccccc2C(=O)NC(=O)C2CCCCC2)CC1 [Example 16, 1-[N-(2-cyclohexylcarbonylaminocarbonylphenyl)-N-cyclohexylcarbonyl-2-aminoethyl]-4-(2-methoxyphenyl)piperazine]	2.9
COC(=O)c1ccccc1NCCN1CCN(c2ccccc2OC)CC1 [Example 17, 1-[N-(2-methoxycarbonylphenyl)-2-aminoethyl]-4-(2-methoxyphenyl)piperazine]	20.2
COc1ccccc1N1CCN(CCN(C(=O)C2CCCCC2)c2ccccc2C(=O)N(C)C)CC1 [Example 21, 1-[N-(2-dimethylaminocarbonylphenyl)-N-cyclohexylcarbonyl-2-aminoethyl]-4-(2-methoxyphenyl)piperazine.]	2.72
COc1ccccc1N1CCN(CCNc2ccccc2C(F)(F)F)CC1 [Example 22, 1-[N-(2-trifluoromethylphenyl)-2-aminoethyl]-4-(2-methoxyphenyl)piperazine]	18.2
CCNC(=O)c1ccccc1N(CCN1CCN(c2ccccc2OC)CC1)C(=O)C1CCCCC1 [Example 25, 1-[N-(2-ethylaminocarbonylphenyl)-N-cyclohexylcarbonyl-2-aminoethyl]-4-(2-methoxyphenyl)piperazine]	8.91
COc1ccccc1N1CCN(CCN(C(=O)C2CCCCC2)c2ccccc2C(F)(F)F)CC1 [Example 26, 1-[N-(2-trifluoromethylphenyl)-N-cyclohexylcarbonyl-2-aminoethyl]-4-(2-methoxyphenyl)piperazine.]	2.69
COc1ccccc1N1CCN(CCN(C(=O)C2CCCCC2)c2ccccc2NC(C)=O)CC1 [Example 28, 1-[N-(2-acetylaminophenyl)-N-cyclohexylcarbonyl-2-aminoethyl]-4-(2-methoxyphenyl)piperazine]	18.8
COc1ccccc1[N+]1([O-])CCN(CCN(C(=O)C2CCCCC2)c2ccccc2[N+](=O)[O-])CC1 [Example 30, 1-[N-(2-nitrophenyl)-N-cyclohexylcarbonyl-2-aminoethyl]-4-(2-methoxyphenyl)piperazine N^4-oxide]	7.96
COc1ccccc1N1CCN(CCN(C(=O)c2ccoc2)c2ccccc2[N+](=O)[O-])CC1 [Example 32, 1-[N-(2-nitrophenyl)-N-(3-furylcarbonyl)-2-aminoethyl]-4-(2-methoxyphenyl)piperazine]	19.4

Compound	Ki [nM]
COc1ccccc1N1CCN(CCN(C(=O)c2cccs2)c2ccccc2[N+](=O)[O-])CC1 [Example 34, 1-[N-(2-nitrophenyl)-N-(2-thiophenecarbonyl)-2-aminoethyl]-4-(2-methoxyphenyl)piperazine]	16.3
COc1ccccc1N1CCN(CCN(C(=O)c2ccsc2)c2ccccc2[N+](=O)[O-])CC1 [Example 35, 1-[N-(2-nitrophenyl)-N-(3-thiophenecarbonyl)-2-aminoethyl]-4-(2-methoxyphenyl)piperazine]	8
COc1ccccc1N1CCN(CCN(C(=O)c2cnccn2)c2ccccc2[N+](=O)[O-])CC1 [Example 38, 1-[N-(2-nitrophenyl)-N-(2-pyrazinylcarbonyl)-2-aminoethyl]-4-(2-methoxyphenyl)piperazine]	1.02
COc1ccccc1N1CCN(CCN(C(=O)C2(C)CCCCC2)c2ccccc2[N+](=O)[O-])CC1 [Example 39, 1-[N-(2-nitrophenyl)-N-(1-methylcyclohexylcarbonyl)-2-aminoethyl]-4-(2-methoxyphenyl)piperazine]	2.65
COc1ccccc1N1CCN(C(C)CN(C(=O)C2CCCCC2)c2ccccc2[N+](=O)[O-])CC1 (stereo not shown) [Example 45, 1-[N-(2-nitrophenyl)-N-cyclohexylcarbonyl-1-amino-2-propyl]-4-(2methoxyphenyl)piperazine]	2.21
COc1ccccc1N1CCN(CCN(C(=O)C2CCCCC2)c2ccccc2NS(C)(=O)=O)CC1 [Example 46, 1-[N-cyclohexylcarbonyl-N-(2-methanesulphonylaminophenyl)-2-aminoethyl]-4-(2-methoxyphenyl)piperazine]	6.05
COc1ccccc1N1CCN(CCN(C(=O)C2CCCCC2)c2ccccc2C(=O)OCc2ccccc2)CC1 [Example 49, 1-[N-cyclohexylcarbonyl-N-(2-benzyloxycarbonylphenyl)-2-aminoethyl]-4-(2-methoxyphenyl)piperazine]	0.17
FC(F)(F)Oc1ccccc1NCCN1CCN(c2cccc3[nH]ccc23)CC1 [Example 50, 1-[N-(2-trifluoromethoxyphenyl)-2-aminoethyl]-4-(4-indolyl)piperazine]	1.16
COc1ccccc1N1CCN(CC(C)Nc2ccccc2[N+](=O)[O-])CC1 (stereo not shown) [Example 52, 1-[N-(2-nitrophenyl)-2-aminopropyl]-4-(2-methoxyphenyl)piperazine]	34
O=C(c1cnccn1)N(CCN1CCN(c2cccc3[nH]ccc23)CC1)c1ccccc1[N+](=O)[O-] [Example 53]	11.7
COc1cc([N+](=O)[O-])ccc1N1CCN(CCN(C(=O)C2CCCCC2)c2ccccc2OC(F)(F)F)CC1 [Example 55, 1-[N-cyclohexylcarbonyl-N-(2-trifluoromethoxyphenyl)-2-aminoethyl]-^4-(2-methoxy-4-nitrophenyl)piperazine]	10.8
COc1cc(NC(=O)C(F)(F)F)ccc1N1CCN(CCN(C(=O)C2CCCCC2)c2ccccc2OC(F)(F)F)CC1 [Example 58, 1-[N-cyclohexylcarbonyl-N-(2-trifluoromethoxyphenyl)-2-aminoethyl]-4-(4-trifluoroacetylamino-2-methoxyphenyl)piperazine]	2.44
COc1cc([N+](=O)[O-])ccc1N1CCN(CCN(C(=O)C2CCCCC2)c2ccccc2OCC(F)(F)F)CC1 [Example 65]	18.6
COc1cc(NC(C)=O)ccc1N1CCN(CCN(C(=O)C2CCCCC2)c2ccccc2OCC(F)(F)F)CC1 [Example 67]	4.76
FC(F)(F)COc1ccccc1NCCN1CCN(c2cccc3[nH]ccc23)CC1 [Example 68]	9.32
COc1cc(NC(C)=O)ccc1N1CCN(CCN(C(=O)C2CCCCC2)c2ccccc2[N+](=O)[O-])CC1 [Example 70]	28.1
FC(F)(F)Oc1ccccc1NCCN1CCN(c2ccccc2OC(F)(F)F)CC1 [Example 71, 1-[N-(2-trifluoromethoxyphenyl)-2-aminoethyl]-4-(2-trifluoromethoxyphenyl)piperazine]	15.5
